Laboratory results as given in patent US20060281755A1, “SYNERGISTIC MODULATION OF FLT3 KINASE USING AMINOPYRIMIDINES KINASE MODULATORS” (priority 2005, published 2006).

Assays:
MV4-11 AML cells = test: 72-hour cell proliferation assay and combination index analysis, MV4-11; type: cell-based, human; conditions: with single sub-IC50 dose of FLT3 inhibitor Compound A (50 nM)
Baf3-ITD cells = test: 72-hour cell proliferation assay and combination index analysis, Baf3-ITD; type: cell-based, murine; conditions: with single sub-IC50 dose of FLT3 inhibitor Compound A (50 nM)
Procedure: Dose responses for the individual compounds alone were determined for each cell line using a standard 72-hour cell proliferation assay (see FIGS. 6.1-6.8). […] Each of these chemically distinct compounds alone has potential for the treatment of disorders related to FLT3, such as FLT3 positive AML. […] The FLT3 inhibitors tested had no effect on THP-1 proliferation. […] (See FIGS. 10.1-10.8 and Tables 1-3, hereafter.)
To statistically evaluate the synergy of a FLT3 inhibitor and an FTI in FLT3 dependent cell lines, dosing combinations were evaluated by the method of Chou and Talalay. See Chou T C, Talalay P. (1984) “Quantitative analysis of dose-effect relationships: the combined effects of multiple drugs or enzyme inhibitors.” Adv Enzyme Regul. 22:27-55. Using this method inhibitors are added simultaneously to cells in a ratio of the IC50 dose of each compound alone. […] Using this method, multiple FTI and FLT3 combinations were evaluated. […]
Combination Index Analysis. To determine growth inhibition synergy of a FTI and FLT3 inhibitor combination based on the method of Chou and Talalay (Chou and Talalay. See Chou T C, Talalay P. (1984) “Quantitative analysis of dose-effect relationships: the combined effects of multiple drugs or enzyme inhibitors.” Adv Enzyme Regul. 22:27-55.), fixed ratio combination dosing with isobolar statistical analysis was performed. […]

MV4-11 tumor xenografts = test: MV4-11 human tumor xenograft regression model in nude mice; type: in vivo; conditions: 50 mg/kg bid oral
Procedure: Female athymic nude mice (CD-1, nu/nu, 9-10 weeks old) were obtained from Charles River Laboratories (Wilmington, Mass.) and were maintained according to NIH standards. All mice were group housed (5 mice/cage) under clean-room conditions in sterile micro-isolator cages on a 12-hour light/dark cycle in a room maintained at 21-22° C. and 40-50% humidity. Mice were fed irradiated standard rodent diet and water ad libitum. All animals were housed in a Laboratory Animal Medicine facility that is fully accredited by the American Association for Assessment and Accreditation of Laboratory Animal Care (AAALAC). […]
The time course of the inhibitory effects of FLT3 inhibitor compounds on the growth of MV4-11 tumors is illustrated in FIG. 1. […] Percent inhibition (% 1) of tumor growth was calculated versus tumor growth in the vehicle-treated Control group on the last study day. Statistical significance versus Control was determined by Analysis of Variance (ANOVA) followed by Dunnett's t-test: * p<0.05; ** p<0.01.
(See FIG. 2). […] Percent Inhibition was calculated versus the mean tumor weight in the vehicle-treated control group. Statistical significance versus Control was determined by ANOVA followed by Dunnett's t-test: ** p<0.01. […]

[1] = patients with relapsed and refractory AML; cited from earlier work

For `Cn1cncc1C(N)(c1ccc(Cl)cc1)c1ccc2c(c1)c(-c1cccc(Cl)c1)cc(=O)n2C` (single isomer, unassigned; (+)) [Tipifarnib, (+)-6-[amino(4-chlorophenyl)(1-methyl-1H-imidazol-5-yl)methyl]-4-(3-chlorophenyl)-1-methyl-2(1H)-quinolinone], which “increase in potency of Tipifarnib” value (MV4-11 AML cells) is on record?
Its value is “more than 3 fold”.

What about the “increase in potency of Tipifarnib” value (Baf3-ITD cells) of the same compound?
Its value is “more than 3 fold”.

What about the “effect on tumor growth as single agent” value (MV4-11 tumor xenografts; 9 days) of the same compound?
The value was “ineffective”.

What about the “effect on tumor growth as single agent” value (MV4-11 tumor xenografts; 16 days) of the same compound?
The value was “ineffective”.

And the response rate [1]?
The response rate was about 30%.
